From article PMC7327804 (Data in Brief, 2020)

Key:
HA-hNTS2 receptor = molecular target: T1, HA-hNTS2 receptor (Homo sapiens, UniProt O95665); assay: Cell-surface ELISA for internalization of HA-hNTS2 receptor; assay type: cell-based; conditions: CHO-K1 cells transfected with HA-hNTS2, 1 µM ligand, 60 min at 37 °C in serum-free media, mean ± SEM of at least three independent determinations
T1 construct: expressed in transfected cells; host or cells: CHO-K1, transient transfection
Experimental: Receptor internalization using CHO-K1 cells transiently transfected with either HA-NTS1 or HA-NTS2 was carried out as previously described in details [9], [10], [11]. […] Cells were then washed with PBS and remaining ELISA steps form the detailed protocol were followed and unchanged. Absorbance was read at 450 nm and data were normalized according to the protocol.

[1] = system: NTS1 (p42/p44 MAPK phosphorylation); assay: Western blot of p42/p44 (ERK1/2) phosphorylation in CHO-K1 cells stably expressing NTS1; assay type: cell-based, human; conditions: CHO-K1 cells stably expressing NTS1, serum-starved, 1 µM ligand, various time points
Experimental: (§1) Cells stably expressing NTS1 or NTS2 were grown for 48 h in complete culture media before being incubated for 16 h in serum-free media. Cells were then stimulated with either NT or JMV2009. Aspiration of media and addition of ice-cold PBS blocked any further protein phosphorylation. Cells were then lysed in RIPA containing proteases and phosphatases inhibitors before being centrifuged at 8000 g for 15 min.
(§2) Separation, transfer and blotting steps were performed as described previously using anti-phosphorylated ERK1/2 (Cell Signaling, cat# 4376S, lot 18, Danvers, MA; 1:1000, in TBS-T, 1% BSA) or anti-ERK1/2 (Cell Signaling, cat# 4695S, lot 28; 1:1000, in TBS-T, 1% BSA) as primary antibodies and HRP-conjugated anti-rabbit IgG from goat (Cell Signaling, cat# 7074S, lot 28; 1:5000, in TBS-T, 1% BSA) as secondary antibody for detection.

[2] = system: NTS2 (p42/p44 MAPK phosphorylation); assay: Western blot of p42/p44 (ERK1/2) phosphorylation in 1321N1 cells stably expressing NTS2; assay type: cell-based, human; conditions: 1321N1 cells stably expressing NTS2, serum-starved, 1 µM ligand, various time points
Experimental: as §1, §2

T1 sequence (O95665 whole entry): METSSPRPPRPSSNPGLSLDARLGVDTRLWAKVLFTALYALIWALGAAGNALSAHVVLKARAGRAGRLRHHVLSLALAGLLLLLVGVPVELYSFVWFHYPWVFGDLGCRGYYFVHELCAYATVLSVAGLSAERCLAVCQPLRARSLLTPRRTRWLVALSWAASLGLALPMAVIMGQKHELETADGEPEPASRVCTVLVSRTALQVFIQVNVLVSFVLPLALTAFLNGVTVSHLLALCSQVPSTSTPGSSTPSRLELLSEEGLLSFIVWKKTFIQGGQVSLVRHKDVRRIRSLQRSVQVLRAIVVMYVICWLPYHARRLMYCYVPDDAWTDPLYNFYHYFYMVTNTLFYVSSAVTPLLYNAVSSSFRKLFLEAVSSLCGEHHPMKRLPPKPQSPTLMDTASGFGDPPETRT

## CC[C@H](C)[C@H](NC(=O)[C@H](Cc1ccc(O)cc1)NC(=O)[C@@H]1C[Si](C)(C)CN1C(=O)[C@H](CCCCN)NC(=O)[C@@H](N)CCCCN)C(=O)N[C@@H](CC(C)C)C(=O)O [JMV2009]
HA-hNTS2 receptor
  NTS2 internalization: 15.1 ± 9.8%
[1]
  phosphorylation of p42/p44 proteins (ERK 1/2), NTS1 cells: time-dependent phosphorylation
[2]
  phosphorylation of p42/p44 proteins (ERK 1/2), NTS2 cells: time-dependent phosphorylation
